Test results from patent publication US20110281289A1, “QUANTIFICATION OF ENZYME ACTIVITY BY MASS SPECTROMETRY USING IMMOBILIZED SUBSTRATES” (LUDWIG INSTITUTE FOR CANCER RESEARCH LTD., priority 2008, published 2011).

Assays:
Format in all cases: cell-based
PI3K [1] = experiment: Multiplex kinase assay on immobilized full length protein substrates (pool 1, pool 2) with lysates of P31-Fuj AML cells, LC-MS readout; parameters: relative kinase activity (normalized to mean of control and treated, log 2 converted), phosphopeptide SMAD-1 RVESPVLPPVLVPR SEQ ID NO: 5: dose or concentration left out as unconfirmed
Method: P31-Fuj AML cells were seeded at a density of 500000 cells/mL. […] Cells were washed twice in ice cold PBS containing 100 mM NaVO3 and 1 mM NaF and were subsequently harvested and lysed in the following lysis buffer: 40 mM Hepes pH 7.5, 120 mM NaCl, 1 mM EDTA, 10 mM pyrophosphate, 10 mM glycerophosphate, 50 mM NaF, 0.5 mM orthovanadate, 0.3% CHAPS, and complete protease inhibitors (Roche). […] After allowing the reactions to occur in the presence of ATP and Mg^2+, samples were trypsin digested and subject to LC-MS analysis. […] Data from a peptide kinase assay using the Aktide peptide (a peptide substrate with sequence RPRAATF—SEQ ID NO: 24—known to provide a readout of PI3K pathway activation) was compared with the data from a multiplex kinase assay using full length protein substrates.

PI3K [2] = experiment: Peptide kinase assay using the Aktide peptide (protocols of WO 07/127,767) with P31-Fuji total cell lysates; conditions: P31-Fuji cells treated with LY294002 before lysis, vs control
From the text: Data from a peptide kinase assay using the Aktide peptide (a peptide substrate with sequence RPRAATF—SEQ ID NO: 24—known to provide a readout of PI3K pathway activation) was compared with the data from a multiplex kinase assay using full length protein substrates. For this, P31-Fuji cells (an acute myeloid leukaemia cell line) were lysed and the kinase activity in total cell lysates measured using the protocols disclosed in WO 07/127,767 or using the protocols disclosed herein. Before lysis, cells were divided into two groups—(1) control and (2) treated with LY294002 (an inhibitor of PI3K which controls downstream protein kinases that phosphorylate the Aktide).

PI3K signalling activity = experiment: Kinase reaction on immobilized BAD with lysates of serum-stimulated NIH-3T3 cells pre-treated or not with inhibitors, LC-MS readout; conditions: starved NIH-3T3 cells pre-treated with inhibitor, 10% fetal calf serum 5 minutes before lysis
Method: Starved NIH-3T3 cells, pre-treated or not with the inhibitors Wortmannin (WM) or PD98059 (PD), were stimulated with 10% fetal calf serum for 5 minutes prior to cell lysis. Cell lysates were mixed with immobilized BAD and ATP/Mg^2+ and reactions allowed to occur at 37° C. for the indicated times. Reactions were stopped and beads washed to remove lysate components and to buffer exchange to 50 mM ammonium bicarbonate. Immobilized phosphorylated BAD was digested with trypsin and resultant peptides analysed by LC-MS and LC-MS/MS.
Mass spectrometry was used to multiplex the measurement of protein kinase activities, using BAD as a substrate for in vitro reactions. BAD is a known substrate of the protein kinase AKT/PKB, which is downstream of PI3K and upstream mTORC1. Mouse His-Tag-BAD protein was immobilized to SEPHAROSE® beads. In subsequent experiments, human proteins were synthesised with N-terminal GST and His tags separated by a PreScission protease cleavage site. Purification was performed with glutathione S-sepharose chromatography. […] These immobilized proteins were used as substrates for kinase reactions using total cell lysates as an enzyme source.
Starved NIH-3T3 cells, pre-treated or not with the inhibitors WM or PD, were stimulated with 10% fetal calf serum for 5 minutes prior to cell lysis. Cell lysates were mixed with immobilized BAD and ATP/Mg^2+ and reactions allowed to occur at 37° C. for the times indicated in FIG. 3. Reactions were stopped, and the beads washed three times to remove lysate components and to buffer exchange to 50 mM ammonium bicarbonate. For each wash, beads were isolated from the reaction by magnetic separation using a magnet. Immobilised phosphorylated BAD was digested with trypsin and resultant peptides analysed by LC-MS and LC-MS/MS. […] These observed activities increased when serum was added to the medium prior to lysis and were sensitive to the addition of wortmannin (WM) but not the MEK inhibitor PD98059 (PD), thus arguing that these activities are a measure of WM target inhibition, probably PI3K signalling activity, a known target of WM, and are probably downstream PI3K.

[3] = Pool 1, P31-Fuj AML cells, 10 mM LY204002 for 1 hr
[4] = Pool 2, P31-Fuj AML cells, 10 mM LY204002 for 1 hr
[5] = full length protein substrate, P31-Fuji cells treated with LY294002 before lysis, vs control

O=c1cc(N2CCOCC2)oc2c(-c3ccccc3)cccc12 [Ly294002, LY294002]
relative kinase activity (normalized, log 2), phosphopeptide Annexin MYGISLCQAILDETKGDYEK SEQ ID NO: 11 (PI3K [1]; [3]): 0.429 | relative kinase activity (normalized, log 2), phosphopeptide Beta Catenin AAVSHWQQQSYLDSGIHSGATTTAPSLSGK SEQ ID NO: 12 (PI3K [1]; [3]): −1.337 | relative kinase activity (normalized, log 2), phosphopeptide Beta Catenin TSMGGTQQQFVEGVR SEQ ID NO: 13 (PI3K [1]; [3]): −0.5836 | relative kinase activity (normalized, log 2), phosphopeptide SMAD-1 HSEYNPQHSLLAQFR SEQ ID NO: 6 (PI3K [1]; [3]): −2.2905 | relative kinase activity (normalized, log 2), phosphopeptide myc CHVSTHQHNYAAPPSTR SEQ ID NO: 7 (PI3K [1]; [3]): 0.1282 | relative kinase activity (normalized, log 2), phosphopeptide myc FELLPTPPLSPSR SEQ ID NO: 8 (PI3K [1]; [3]): 0.1492 | relative kinase activity (normalized, log 2), phosphopeptide myc FELLPTPPLSPSRR SEQ ID NO: 9 (PI3K [1]; [3]): −0.0685 | relative kinase activity (normalized, log 2), phosphopeptide myc VKLDSVR SEQ ID NO: 10 (PI3K [1]; [3]): -0.3467 | relative kinase activity (normalized to mean of control and treated, log 2 converted), phosphopeptide SMAD-1 RVESPVLPPVLVPR SEQ ID NO: 5 (PI3K [1]; Pool 1, P31-Fuj AML cells, LY204002 for 1 hr): −0.6559 | relative kinase activity (normalized, log 2), phosphopeptide 4ebp1 TPPRDLPTIPGVTSPSSDEPPMEASQSHLR SEQ ID NO: 19 (PI3K [1]; [4]): −4.332 | relative kinase activity (normalized, log 2), phosphopeptide S6 DIPGLTDTTVPR SEQ ID NO: 14 (PI3K [1]; [4]): −0.573 | relative kinase activity (normalized, log 2), phosphopeptide S6 DIPGLTDTTVPRR SEQ ID NO: 15 (PI3K [1]; [4]): 0.007685 | relative kinase activity (normalized, log 2), phosphopeptide foxo AVSMDNSNKYTK SEQ ID NO: 18 (PI3K [1]; [4]): −0.6542 | relative kinase activity (normalized, log 2), phosphopeptide foxo HNLSLHSR SEQ ID NO: 17 (PI3K [1]; [4]): −0.1853 | relative kinase activity (normalized, log 2), phosphopeptide foxo WPGSPTSR SEQ ID NO: 16 (PI3K [1]; [4]): −0.6519 | relative kinase activity (normalized, log 2), phosphopeptide p53 ALPNNTSSSPQPK SEQ ID NO: 21 (PI3K [1]; [4]): −5.826 | relative kinase activity (normalized, log 2), phosphopeptide p53 CSDSDGLAPPQHLIR SEQ ID NO: 22 (PI3K [1]; [4]): −3.078 | relative kinase activity (normalized, log 2), phosphopeptide p53 RALPNNTSSSPQPK SEQ ID NO: 23 (PI3K [1]; [4]): −1.587 | relative kinase activity (normalized, log 2), phosphopeptide p53 SVTCTYSPALNK SEQ ID NO: 20 (PI3K [1]; [4]): −2.051 | reduction of kinase activity towards Ser94 on the substrate 4EBP1 (PI3K [1]; [5]): 95% | reduction of kinase activity towards Ser121 on the substrate p53 (PI3K [1]; [5]): 99% | reduction on the kinase activity towards the Aktide (PI3K [2]): about 85%

COc1cccc(-c2cc(=O)c3ccccc3o2)c1N [PD98059]
kinase activity towards BAD pS136 (SEQ ID NO: 4) (PI3K signalling activity): not sensitive | kinase activity towards BAD pS170 (SEQ ID NO: 3) (PI3K signalling activity): not sensitive | kinase activity towards BAD pS136 (SEQ ID NO: 4) (PI3K signalling activity; listed as PD): sensitive to the addition of WM but not PD | kinase activity towards BAD pS170 (SEQ ID NO: 3) (PI3K signalling activity; listed as PD): sensitive to the addition of WM but not PD
